In patent US11220674B2, “Stabilization of dehydrogenases with stable coenzymes” (ROCHE DIABETES CARE, INC., priority 2009, dated 2022):

Key:
[1] = biological target: glucose dehydrogenase/NAD system (Bacillus subtilis, UniProt P12310); assay: Photometric glucose determination with GlucDH/NAD, mediator and 2,18-phosphomolybdic acid (reflectance); details: for reflectance of the measured sample: glucose concentration in the region of 800 mg/dl; for reflectance versus glucose concentration: test elements stored at room temperature for 11 weeks, GlucDH, NAD, mediator, 2,18-phosphomolybdic acid
Protocol: To determine glucose, various test systems which included in each case glucose dehydrogenase, NAD, a mediator and, where appropriate, an optical indicator were measured photometrically and electrochemically.
For photometric measurements, initially four test elements which had in each case been stored at room temperature for 11 weeks and comprised 2,18-phosphomolybdic acid, besides glucose dehydrogenase, NAD and a mediator, were investigated with various glucose concentrations.

[2] = biological target: glucose dehydrogenase (GlucDH), wild-type (Bacillus subtilis, UniProt P12310); assay: Residual activity of GlucDH after dry storage on film with coenzyme; type: biochemical
Protocol: (§1) Carba-NAD (FIG. 1A) or NAD were added to the glucose-specific GlucDH. These formulations were in each case applied to Pokalon film (Lonza) and, after drying, stored under warm and moist conditions (32° C., 85% relative humidity). The reaction kinetics and the function plot were subsequently determined at regular intervals. In parallel, at each of the times of measurement a cNAD/NAD analysis and a determination of the residual activity of the enzyme were carried out.
The result of the determination of residual activity of the active GlucDH enzyme after 5 weeks at 32° C. and 85% relative humidity (FIG. 7A) is completely surprising. […] After 24 weeks at 32° C. and 85% relative humidity (FIG. 7B), the residual activity of the enzyme on stabilization with cNAD is still about 25%.

[3] = biological target: T1, glucose dehydrogenase (GlucDH) (Bacillus subtilis, UniProt P12310); assay: Stability of GlucDH in liquid phase at 50° C. with coenzyme (residual activity); type: biochemical
Protocol: FIG. 11A is a depiction of the stability of glucose dehydrogenase in the presence of NAD and cNAD, respectively, in liquid phase at 50° C. over a period of 4 days Test conditions: GlucDH 10 mg/ml; NAD and cNAD, respectively, 12 mg/ml; buffer: 0.1 M Tris, 1.2 M NaCl, pH 8.5; temperature 50° C.
FIG. 11B is a depiction of the stability of glucose dehydrogenase in the presence of NAD and cNAD, respectively, in liquid phase at 50° C. over a period of 14 days at the same test conditions as FIG. 11A.
After 95 hours at 50° C., the residual activity of glucose dehydrogenase in the presence of the native coenzyme NAD is ≈5%, whereas the residual activity of GlucDH in the presence of the artificial coenzyme cNAD is 75% (FIG. 11A). After storage at 50° C. for 336 hours, the residual activity of the enzyme stabilized with NAD is now only about 1%; the residual activity of the enzyme stored in the presence of cNAD is observed to be still about 70%.

[4] = biological target: T2, alcohol dehydrogenase from yeast (Saccharomyces cerevisiae, UniProt P00330); assay: Stability of alcohol dehydrogenase in liquid phase at 35° C. with coenzyme (residual activity); type: biochemical; details: after 65 hours at 35° C.
T2 sequence (P00330 1-348): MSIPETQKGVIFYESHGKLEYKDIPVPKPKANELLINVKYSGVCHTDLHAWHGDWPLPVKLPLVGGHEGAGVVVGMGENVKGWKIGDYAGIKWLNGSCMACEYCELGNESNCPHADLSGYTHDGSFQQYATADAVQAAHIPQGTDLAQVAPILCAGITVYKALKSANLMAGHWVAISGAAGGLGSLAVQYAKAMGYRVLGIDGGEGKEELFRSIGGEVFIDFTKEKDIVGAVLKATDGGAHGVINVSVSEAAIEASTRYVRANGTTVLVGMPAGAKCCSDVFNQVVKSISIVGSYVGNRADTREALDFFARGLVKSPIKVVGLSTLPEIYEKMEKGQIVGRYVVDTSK
Protocol: FIG. 14 is a depiction of the stability of alcohol dehydrogenase from yeast in the presence of NAD and cNAD, respectively, in liquid phase at 35° C. over a period of 65 hours. Test conditions: ADH 5 mg/ml; NAD and cNAD, respectively, 50 mg/ml; buffer: 75 mM Na4P207, glycine, pH 9.0; temperature 35° C.
(§2) cNAD or NAD were added to an alcohol detection solution. These mixtures were stored at 35° C. The stability of the enzyme was then checked at regular intervals, and the residual activity of the enzyme was determined.
After 65 hours at 35° C., the residual activity of alcohol dehydrogenase in the presence of the native coenzyme NAD is about 6%, whereas the residual activity of the enzyme in the presence of the artificial coenzyme cNAD is still about 60%.

[5] = Residual content of coenzyme in glucose detection reagent after dry storage on film (cNAD/NAD analysis); type: physicochemical; details: storage at 32° C. and 85% relative humidity for 24 weeks
Protocol: as §1
The relation between structure of the coenzyme and its stability over a predetermined period is evident from FIG. 6. According to this, the residual content of cNAD in a glucose detection reagent after storage (at 32° C. and 85% relative humidity) for 24 weeks is still about 80% of the initial level, whereas the content of NAD in a glucose detection reagent stabilized with NAD declines after only 5 weeks to about 35% of the initial level and, by extrapolation, is reduced to zero after about 17 weeks.

[6] = biological target: GlucDH_E170K_K252L (GlucDH-Mut2) (Bacillus subtilis, UniProt P12310, A229V/A236S/E170K/Q252L); assay: Residual activity of GlucDH mutant after dry storage with coenzyme; type: biochemical; details: storage at 32° C. and 85% relative humidity for 24 weeks
Protocol: (§3) FIG. 8 is a depiction of the GlucDH activity after storage of glucose dehydrogenase (GlucDH wt), the double mutant GlucDH_E96G_EI70K (GlucDH Mut1) and the double mutant GlucDH_E170K_K252L (GlucDH Mut2) in the presence of NAD and cNAD, respectively, at 32° C. and 83% relative humidity over a period of 25 weeks.
as §1
(§4) If a mutant is used instead of the wild-type enzyme (from Bacillus subtilis), it is possible to increase the residual GlucDH activity even further. […]

[7] = biological target: GlucDH_E96G_E170K (GlucDH-Mut1) (Bacillus subtilis, UniProt P12310, A229V/A236S/E170K/E96G/Q252K); assay: as above; type: biochemical; details: storage at 32° C. and 85% relative humidity for 24 weeks
Protocol: as §3, §1, §4

[8] = biological target: T1, glucose dehydrogenase (GlucDH); assay: Reaction kinetics, function plot and dry blank value of GlucDH test film after storage; type: biochemical
Protocol: as §1
However, a distinct difference in the kinetics plots is evident after 5 weeks.
There is also a distinct difference in the blank values (dry blank value before application of a blood sample), as is evident from FIG. 3.
The differing stability of glucose dehydrogenase in the presence of NAD and cNAD, respectively, is also evident from comparison of FIGS. 4 and 5.

[9] = biological target: T1, glucose dehydrogenase (GlucDH); assay: SDS gel electrophoresis of GlucDH after storage with coenzyme
Protocol: Test conditions: MW, 10 220 kDa markers; 1: GlucDH/NAD, 5 weeks at 6° C.; 2: GlucDH/NAD, 5 weeks at 32° C./85% relative humidity; 3: GlucDH/cNAD, 5 weeks at 6° C.; 4: GlucDH/cNAD, 5 weeks at 32° C./85% relative humidity.
Test conditions: MW, 10 220 kDa markers; 1: GlucDH 8.5 mg/ml, NAD, 0 hours; 2: GlucDH 8.5 mg/ml, NAD, 22 hours; 3: GlucDH 8.5 mg/ml, NAD, 96 hours; 4: GlucDH 8.5 mg/ml, NAD, 118 hours; 5: GlucDH 8.5 mg/ml, NAD, 140 hours; 6: GlucDH 8.5 mg/ml, NAD, 188 hours; 7: GlucDH 8.5 mg/ml, NAD, 476 hours; 8: GlucDH 8.5 mg/ml, cNAD, 0 hours; 9: GlucDH 8.5 mg/ml, cNAD, 188 hours; 10: GlucDH 8.5 mg/ml, cNAD, 476 hours.

[10] = biological target: T2, alcohol dehydrogenase from yeast; assay: SDS gel electrophoresis of alcohol dehydrogenase after storage with coenzyme
Protocol: Test conditions: MW, 10 220 kDa markers; 1: ADH, 65 hours at 6° C.; 2: ADH/cNAD, 65 hours at 6° C.; 3: ADH/NAD, 65 hours at 6° C.; 4: ADH, 65 hours at 35° C.; 5: ADH/cNAD, 65 hours at 35° C.; 6: ADH/NAD, 65 hours at 35° C.
Test conditions: MW, 10 220 kDa markers; 1: ADH/NAD, 0 days; 2: ADH/NAD, 1 day; 3: ADH/NAD, 2 days; 4: ADH/NAD, 3 days; 5: ADH/NAD, 5 days; 6: ADH/cNAD, 0 days; 7: ADH/cNAD, 1 day; 8: ADH/cNAD, 2 days; 9: ADH/cNAD, 3 days; 10: ADH/cNAD, 6 days.
as §2

glucose dehydrogenase = glucose dehydrogenase (Bacillus subtilis, UniProt P12310); assay: Electrochemical glucose determination with GlucDH, coenzyme and mediator (current); details: 25 mM coenzyme; mediator 1-(3-carboxypropoxy)-5-ethylphenazinium trifluoromethanesulfonate
Protocol: FIG. 20 is a depiction of the current measured as a function of the glucose concentration in the electrochemical determination of glucose using glucose dehydrogenase in the presence of NAD and cNAD, respectively. Test conditions: 25 mM NAD and cNAD, respectively; 2.5 seconds delay; 5 seconds measurement time.
As alternative to photometry it is also possible to employ an electrochemical measurement for the purpose of determining analytes.

[11] = after 5 weeks at 32° C. and 85% relative humidity, versus samples stored in refrigerator with desiccant
[12] = storage at 50° C. for 336 hours

| SMILES | reflectance of the measured sample [1] | reflectance versus glucose concentration [1] | residual activity of GlucDH enzyme [2, 11] | residual activity of glucose dehydrogenase ([3]; after 95 hours at 50° C.) | residual activity of glucose dehydrogenase [3, 12] | residual activity of alcohol dehydrogenase [4] | further results |
| --- | --- | --- | --- | --- | --- | --- | --- |
| Cl.O=Nc1ccc(N(CO)CO)cc1 [Med A, [(4-nitrosophenyl)imino]dimethanol hydrochloride] | about 20% | a fall in the reflectance was observed with increasing glucose concentration |  |  |  |  |  |
| C[n+]1cccc2c1-c1ncccc1C(=O)C2=O.O=S(=O)([O-])C(F)(F)F [Med B, 1-methyl-5,6-dioxo-5,6-dihydro-1, 10-phenanthrolinium trifluoromethanesulfonate] |  | a fall in the reflectance was observed with increasing glucose concentration |  |  |  |  |  |
| C[n+]1cccc2c1C(=O)C(=O)c1cccnc1-2.O=S(=O)([O-])C(F)(F)F [Med F, 7-methyl-5,6-dioxo-5,6-dihydro-1,7-phenanthrolinium trifluoromethanesulfonate] |  | a fall in the reflectance was observed with increasing glucose concentration |  |  |  |  |  |
| CC[n+]1c2ccccc2nc2c(OCCCC(=O)O)cccc21.O=S(=O)([O-])C(F)(F)F [Med G, 1-(3-carboxypropoxy)-5-ethylphenazinium trifluoromethanesulfonate] | about 20% | a fall in the reflectance was observed with increasing glucose concentration |  |  |  |  |  |
| NC(=O)c1ccc[n+]([C@@H]2O[C@H](COP(=O)([O-])OP(=O)(O)OC[C@H]3O[C@@H](n4cnc5c(N)ncnc54)[C@H](O)[C@@H]3O)[C@@H](O)[C@H]2O)c1 [NAD, nicotinamide adenine dinucleotide, reference compound] |  |  | 0.5% | ≈ 5% | about 1% | about 6% |  |
| NC(=O)c1ccc[n+]([C@@H]2C[C@H](COP(=O)([O-])OP(=O)(O)OC[C@H]3O[C@@H](n4cnc5c(N)ncnc54)[C@H](O)[C@@H]3O)[C@@H](O)[C@H]2O)c1 [cNAD, carba-NAD] |  |  | 70% | 75% | about 70% | about 60% | residual content of coenzyme in glucose detection reagent [5]: about 80 % of the initial level; residual activity of GlucDH enzyme ([2]; after 24 weeks at 32° C. and 85% relative humidity): about 25%; residual activity of GlucDH_E170K_K252L mutant [6]: about 50%; residual activity of GlucDH_E96G_E170K mutant [7]: about 70%; function plot of GlucDH after storage ([8]; after 5 weeks at 32° C., 85% humidity): still in the bunch of previous measurements; kinetics plots of GlucDH after storage ([8]; after 5 weeks at 32° C., 85% relative humidity): remain virtually unchanged; function plot of GlucDH after storage ([8]; over 24 weeks at 32° C., 85% humidity): only slightly changed at high glucose concentrations; dry blank value (before application of blood sample) ([8]; up to 5 weeks at 32° C., 85% humidity): this does not occur; enzyme band in SDS gel ([9]; storage at 50° C., after 476 hours): only slight change; enzyme band in SDS gel ([9]; storage for 5 weeks at 32° C. and 85% relative humidity): still identifiable as a band with the expected mobility; alcohol dehydrogenase band in SDS gel ([10]; storage at 35° C., NAD 5 days, cNAD 6 days): distinctly less decomposition of the enzyme; alcohol dehydrogenase band in SDS gel ([10]; storage for 65 hours at 35° C. (versus 6° C.)): differ only slightly; current required to reoxidize the reduced mediator versus glucose concentration (glucose dehydrogenase): linearly dependent on the glucose concentration |
